In ChEMBL document CHEMBL6114974, “Development of novel BACE1 inhibitors with a hydroxyproline-derived N-amidinopyrrolidine scaffold” (Bioorg Med Chem, 2025):

Target: Beta-secretase 1 (Homo sapiens, UniProt P56817)
Assay: Inhibition of recombinant BACE1 (unknown origin) using H-Ile-Lys-Thr-Glu-Glu-Ile-Ser-Glu-Val-Asn-Leu-Asp-Ala-Glu-Phe-Arg-His-Asp-Ser-Gly-NH2 as substrate measured after 90 mins by HPLC analysis

Chain of Beta-secretase 1 (P56817 whole entry): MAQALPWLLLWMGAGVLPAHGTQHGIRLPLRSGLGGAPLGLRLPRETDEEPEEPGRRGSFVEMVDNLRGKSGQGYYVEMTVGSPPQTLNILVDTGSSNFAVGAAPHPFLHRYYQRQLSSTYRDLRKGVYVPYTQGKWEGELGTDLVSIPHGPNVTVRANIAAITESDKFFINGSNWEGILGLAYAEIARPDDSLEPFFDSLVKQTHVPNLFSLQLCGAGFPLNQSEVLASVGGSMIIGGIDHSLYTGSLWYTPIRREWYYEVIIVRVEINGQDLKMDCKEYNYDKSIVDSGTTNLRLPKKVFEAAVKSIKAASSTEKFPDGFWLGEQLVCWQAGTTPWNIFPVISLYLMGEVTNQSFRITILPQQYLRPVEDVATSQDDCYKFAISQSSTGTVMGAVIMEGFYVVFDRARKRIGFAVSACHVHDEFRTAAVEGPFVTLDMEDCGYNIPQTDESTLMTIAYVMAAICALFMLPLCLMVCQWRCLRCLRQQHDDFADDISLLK

**Q.** `C[C@H]1OC[C@]2(c3cc(NC(=O)c4cnc(C(F)F)cn4)ccc3F)N=C(N)SC[C@H]12` [ELENBECESTAT] was tested. Which IC50 did it give?
**A.** The IC50 was 57 nM.
